Test results reported in ChEMBL document CHEMBL1121874, “Importance of the aromatic ring in adrenergic amines. 5. Nonaromatic analogues of phenylethanolamine as inhibitors of phenylethanolamine N-methyltransferase: role of hydrophobic and steric interactions” (J Med Chem, 1981).

T1: Phenylethanolamine N-methyltransferase (Bos taurus, UniProt P10938)
T1 sequence (P10938 whole entry): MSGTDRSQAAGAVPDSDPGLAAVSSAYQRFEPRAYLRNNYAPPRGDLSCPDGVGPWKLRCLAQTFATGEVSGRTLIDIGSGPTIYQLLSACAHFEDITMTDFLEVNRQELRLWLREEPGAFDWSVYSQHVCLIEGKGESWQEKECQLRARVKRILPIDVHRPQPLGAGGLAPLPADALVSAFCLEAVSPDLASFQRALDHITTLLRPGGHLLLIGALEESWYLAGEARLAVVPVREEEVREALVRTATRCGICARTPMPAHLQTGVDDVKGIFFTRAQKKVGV

B1: Phenylethanolamine N-methyltransferase (Bos taurus), P10938 (protein)
chain: MSGTDRSQAAGAVPDSDPGLAAVSSAYQRFEPRAYLRNNYAPPRGDLSCPDGVGPWKLRCLAQTFATGEVSGRTLIDIGSGPTIYQLLSACAHFEDITMTDFLEVNRQELRLWLREEPGAFDWSVYSQHVCLIEGKGESWQEKECQLRARVKRILPIDVHRPQPLGAGGLAPLPADALVSAFCLEAVSPDLASFQRALDHITTLLRPGGHLLLIGALEESWYLAGEARLAVVPVREEEVREALVRTATRCGICARTPMPAHLQTGVDDVKGIFFTRAQKKVGV

These molecules were tested on NCC(O)/C1=C/CCCCCC1 (assay: (§1) Substrate activity against phenylethanolamine N-methyl-transferase was tested).
In the case of B1, the Km is reported as 110 µM.

These molecules were tested on NCC(O)C1=C/C=C\C=C/C=C\1 (assay: as §1).
Molecule B1 has a Km of 430 µM.

The molecules below were run on NCC(O)C1=C/CCCC/C=C\1 (assay: as §1).
B1 was tested, and the Km was 128 µM.

What follows are molecules tested on NCC(O)C1CCCCC1 (assay: as §1).
B1 was tested, and the Km was 40 µM.

Each molecule was assayed on NCC(O)/C1=C/CC/C=C\CC1 (assay: as §1).
B1 showed a Km of 155 µM.

These molecules were tested on NCC(O)C1CC=CCC1 (assay: as §1).
B1 was tested, and the Km was 57 µM.

Each molecule was assayed on NCC(O)C1CCCCCCC1 (assay: as §1).
B1 gave a Km of 26 µM.

Each molecule was assayed on NC[C@@H](O)c1ccccc1 (assay: (§2) Inhibitory activity against phenylethanolamine N-methyl-transferase).
With B1 the Km was 136 µM.

Each molecule was assayed against T1, Phenylethanolamine N-methyltransferase (assay: as §2).
In the case of `CCCCCCC(C)=O`, the IC50 is reported as 664 µM.
`C[Si](C)(C)OC(C#N)C1CCC1` (stereo unspecified) showed an IC50 greater than 1000 µM.
With `CCC(CC)C(O)CN` (stereo unspecified) the IC50 was 545 µM.
`CCCCCC(O)CN` (stereo unspecified) gave an IC50 of 314 µM.
Work on `C[Si](C)(C)OC(C#N)C1CCCCCCCC1` (stereo unspecified) yielded an IC50 of 6 µM.
`CCCCC(O)CN` (stereo unspecified) gave an IC50 of 345 µM.
In the case of `CC(C)CC(O)CN` (stereo unspecified), the IC50 is reported as 1000 µM.
`CC(C)CC=O` showed an IC50 of 1000 µM.
For `C[Si](C)(C)OC1(C#N)CCCCC1`, the IC50 was greater than 1000 µM.
With `NCC(O)/C1=C/CCCCCC1` (stereo unspecified) the IC50 was 38 µM.
With `C[Si](C)(C)OC1(C#N)CCCC1` the IC50 was greater than 1000 µM.
`NCC1(O)CCCCCCC1` was tested, and the IC50 was 72 µM.
Work on `NCC(O)C1CC=CCC1` (stereo unspecified) yielded an IC50 of 52 µM.
Work on `NCC1(O)CCCCCCCCCC1` yielded an IC50 of 8 µM.
With `O=C1CCCCC1` [CYCLOHEXANONE] the IC50 was greater than 1000 µM.
With `CC(C)CC(C#N)O[Si](C)(C)C` (stereo unspecified) the IC50 was 1000 µM.
Molecule `O=C1CCCCCCCC1` [CYCLONONANONE] has an IC50 of 17 µM.
For `O=CC12CC3CC(CC(C3)C1)C2`, the IC50 was 195 µM.
With `NCC(O)/C1=C/CC/C=C\CC1` (stereo unspecified) the IC50 was 89 µM.
For `C[Si](C)(C)OC1(C#N)CCCCCC1`, the IC50 was 510 µM.
Work on `CCCCCCC(C)(C#N)O[Si](C)(C)C` (stereo unspecified) yielded an IC50 of 664 µM.
`C[Si](C)(C)OC1(C#N)CCCCCCCC1` was tested, and the IC50 was 17 µM.
With `C[Si](C)(C)OC1(C#N)CCCCCCC1` the IC50 was 72 µM.
Molecule `CCC(C)C(C)C(O)CN` (stereo unspecified) has an IC50 of 403 µM.
`NCC(O)C1=C/CCCC/C=C\1` (stereo unspecified) gave an IC50 of 57 µM.
`NCC1(O)CCCCCC1` showed an IC50 of 510 µM.
With `CCC(C=O)CC` the IC50 was 545 µM.
In the case of `NCC(O)C1CCCCC1` (stereo unspecified), the IC50 is reported as 14 µM.
`NCC(O)C1CCCC1` (stereo unspecified) was tested, and the IC50 was 446 µM.
In the case of `CCCCCCC(O)CN` (stereo unspecified), the IC50 is reported as 109 µM.
`C[Si](C)(C)OC(C#N)C1CCCC1` (stereo unspecified) was tested, and the IC50 was 446 µM.
In the case of `NCC(O)C1CCCCCCC1` (stereo unspecified), the IC50 is reported as 7 µM.
`CCCCCCCC(C#N)O[Si](C)(C)C` (stereo unspecified) gave an IC50 of 216 µM.
`CCCCCC(C)(C#N)O[Si](C)(C)C` (stereo unspecified) showed an IC50 of 669 µM.
Molecule `O=C1CCCCCCC1` [CYCLOOCTANONE] has an IC50 of 72 µM.
`CCCCCCCC(O)CN` (stereo unspecified) gave an IC50 of 216 µM.
With `NCC(O)C1CCCCCC1` (stereo unspecified) the IC50 was 8 µM.
Molecule `CCCCCCCC=O` [OCTANAL] has an IC50 of 216 µM.
Work on `NCC(O)C1=C/C=C\C=C/C=C\1` (stereo unspecified) yielded an IC50 of 760 µM.
Work on `CCC(CC)C(C#N)O[Si](C)(C)C` (stereo unspecified) yielded an IC50 of 545 µM.
For `O=CC1CCC1` [CYCLOBUTANE CARBALDEHYDE], the IC50 was greater than 1000 µM.
For `NCC1(O)CCCC1`, the IC50 was greater than 1000 µM.
`CCCCCC(C)(O)CN` (stereo unspecified) was tested, and the IC50 was 669 µM.
`NCC(O)C1CCC1` (stereo unspecified) gave an IC50 greater than 1000 µM.
With `NCC(O)C12CC3CC(CC(C3)C1)C2` (stereo unspecified) the IC50 was 195 µM.
`CCCCCC(C#N)O[Si](C)(C)C` (stereo unspecified) was tested, and the IC50 was 314 µM.
`C[Si](C)(C)OC(C#N)C1CCCCCCCCCC1` (stereo unspecified) was tested, and the IC50 was 9 µM.
In the case of `NCC(O)C1CCCCCCCC1` (stereo unspecified), the IC50 is reported as 6 µM.
`CCCCCCC=O` [HEPTANAL] was tested, and the IC50 was 109 µM.
Work on `CCCCC(C#N)O[Si](C)(C)C` (stereo unspecified) yielded an IC50 of 345 µM.
In the case of `O=C1CCCC1` [CYCLOPENTANONE], the IC50 is reported as greater than 1000 µM.
`O=CC1CCCCCCCC1` [CYCLONONANECARBALDEHYDE] gave an IC50 of 6 µM.
Work on `CCCCCCC(C#N)O[Si](C)(C)C` (stereo unspecified) yielded an IC50 of 109 µM.
`CCCCCC(C)=O` gave an IC50 of 669 µM.
For `O=CC1CCCCCC1` [CYCLOHEPTANE CARBALDEHYDE], the IC50 was 8 µM.
`CCCCCC=O` [HEXANAL] gave an IC50 of 314 µM.
For `O=CC1CCCC1` [CYCLOPENTANECARBALDEHYDE], the IC50 was 446 µM.
Work on `C[Si](C)(C)OC(C#N)C12CC3CC(CC(C3)C1)C2` (stereo unspecified) yielded an IC50 of 195 µM.
For `CCC(C)C(C)C(C#N)O[Si](C)(C)C` (stereo unspecified), the IC50 was 403 µM.
Molecule `CCCCC=O` [PENTANAL] has an IC50 of 345 µM.
`O=CC1CCCCCCCCCC1` [CYCLOUNDECANE CARBALDEHYDE] showed an IC50 of 9 µM.
Molecule `O=C1CCCCCC1` [CYCLOHEPTANONE] has an IC50 of 510 µM.
With `NCC1(O)CCCCC1` the IC50 was greater than 1000 µM.
`CCC(C)C(C)C=O` (stereo unspecified) gave an IC50 of 403 µM.
Work on `NCC(O)C1CCCCCCCCCC1` (stereo unspecified) yielded an IC50 of 9 µM.
Work on `C[Si](C)(C)OC(C#N)C1CCCCCC1` (stereo unspecified) yielded an IC50 of 8 µM.
Work on `NCC1(O)CCCCCCCC1` yielded an IC50 of 17 µM.
`CCCCCCC(C)(O)CN` (stereo unspecified) showed an IC50 of 664 µM.
